This is an account of results in the OPERA property sets (Mansouri et al. 2018).

Structures are written as SMILES. In brackets after ≈: the same amount, converted by molar mass.

Under “20 °C”, `CCCCCCOCCO` came in with a solubility of 67700 µM (≈ 9900 µg/mL).
Take `Clc1cccc(-c2ccccc2)c1Cl`: the solubility (25 °C) was found to be 4.47 µM (≈ 0.997 µg/mL).
`CCCCCC(C)O` (stereo not given) showed a solubility (25 °C) of 28100 µM (≈ 3270 µg/mL).
For the setting “20 °C”, `CCCCOCCOCCCC` showed a solubility of 11500 µM (≈ 2000 µg/mL).
Compound `CCCC[N+](=O)[O-]` gave a solubility (25 °C) of 44600 µM (≈ 4600 µg/mL).
Same read-out and setting: next, `Clc1cc(Cl)c(Cl)c(-c2c(Cl)ccc(Cl)c2Cl)c1`: 0.0151 µM (≈ 0.00544 µg/mL).
For the setting “25 °C”, `CCOCCOCC` yielded a solubility of 708000 µM (≈ 83700 µg/mL).
Consider `Clc1ccc(-c2c(Cl)cccc2Cl)cc1`, for which the solubility (25 °C) is 0.617 µM (≈ 0.159 µg/mL).
Compound `CC(=O)Nc1ccccc1[N+](=O)[O-]` showed a solubility (25 °C) of 12300 µM (≈ 2220 µg/mL).
Consider `CCCCCCCOC(=O)c1ccc(N)cc1`, for which the solubility (25 °C) came to 25.1 µM (≈ 5.91 µg/mL).
For `CCCCCCCCOC(=O)c1ccc(N)cc1`, the solubility (25 °C) worked out at 3.98 µM (≈ 0.993 µg/mL).
Same read-out and setting: next, `Clc1ccccc1-c1ccc(Cl)c(Cl)c1Cl`: 0.148 µM (≈ 0.0432 µg/mL); `Clc1cccc(-c2c(Cl)ccc(Cl)c2Cl)c1Cl`: 0.166 µM (≈ 0.0542 µg/mL); `CCCOC(N)=O`: 741000 µM (≈ 76400 µg/mL).
The same measure, in the same setting: to `Fc1cccc(F)c1` belongs 9990 µM (≈ 1140 µg/mL).
Turning to `CCCCOCCOCCOCCCC`, the solubility (20 °C) came to 13700 µM (≈ 3000 µg/mL).
The compound `CCCCCCN` registered a solubility (25 °C) of 119000 µM (≈ 12000 µg/mL).
With `Clc1ccc(-c2ccc(Cl)c(Cl)c2Cl)c(Cl)c1`, the solubility (25 °C) came out at 0.024 µM (≈ 0.00783 µg/mL).
Turning to `Cc1ccco1`, the solubility (20 °C) turned out to be 36500 µM (≈ 3000 µg/mL).
Compound `Clc1ccc(-c2c(Cl)ccc(Cl)c2Cl)cc1Cl` gave a solubility (25 °C) of 0.0224 µM (≈ 0.00731 µg/mL).
`Clc1ccc(Cl)c(-c2ccccc2)c1Cl` returned a solubility (25 °C) of 0.323 µM (≈ 0.0833 µg/mL).
The same measure, in the same setting: to `Clc1cc(Cl)c(-c2c(Cl)ccc(Cl)c2Cl)cc1Cl` belongs 0.0117 µM (≈ 0.00424 µg/mL).
Same read-out and setting: next, `O=Cc1ccc([N+](=O)[O-])cc1`: 15500 µM (≈ 2340 µg/mL); `Clc1ccccc1-c1c(Cl)cccc1Cl`: 1.26 µM (≈ 0.324 µg/mL).
Same read-out and setting: to `CCc1ccc(C)cc1` belongs 790 µM (≈ 94.9 µg/mL).
